Reference: PMC2901914 (Neuron, 2010)

Molecular target: T1, mouse I7 receptor (mI7) (Mus musculus, UniProt Q9QWU6)
T1 sequence (Q9QWU6 1-327): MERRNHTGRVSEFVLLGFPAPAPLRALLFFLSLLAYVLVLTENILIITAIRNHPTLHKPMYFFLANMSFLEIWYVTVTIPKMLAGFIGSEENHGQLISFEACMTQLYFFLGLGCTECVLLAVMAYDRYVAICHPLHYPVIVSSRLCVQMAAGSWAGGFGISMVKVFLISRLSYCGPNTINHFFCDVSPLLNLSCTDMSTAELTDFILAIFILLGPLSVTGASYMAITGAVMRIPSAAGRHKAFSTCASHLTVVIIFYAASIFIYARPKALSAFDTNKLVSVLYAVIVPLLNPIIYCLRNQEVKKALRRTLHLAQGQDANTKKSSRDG

| EC50 | SMILES |
| --- | --- |
| ~6.3 µM | CCCCCCC=O [7al, heptanal] |
| ~63.1 µM | CCCCCCCC=O [8al, octanal] |
